Experimental data taken from PubChem BioAssay (NCI).
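Values below derive from 48-hour exposures of cells grown in 96-well plates, with endpoints linearly interpolated between the two concentrations bracketing the appropriate inhibition level. The concentration for 50% growth inhibition is given as GI50. TGI: concentration producing complete growth inhibition.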

Key:
Assay in all cases: inhibition of tumour cell growth, NCI panel, 48 h
[1] = test system: K-562 leukemia
[2] = test system: A498 renal
[3] = test system: UACC-62 melanoma
[4] = test system: MALME-3M melanoma
[5] = test system: RPMI-8226 leukemia
[6] = test system: NCI-H460 lung
[7] = test system: MDA-MB-435
[8] = test system: SF-268 CNS
[9] = test system: T-47D breast
[10] = test system: A549 NSCLC

| Structure (SMILES) | GI50 [1] [µM] | TGI [1] [µM] | GI50 [2] [µM] | TGI [2] [µM] | GI50 [3] [µM] | TGI [3] [µM] | GI50 [4] [µM] | TGI [4] [µM] | GI50 [5] [µM] | TGI [5] [µM] | GI50 [6] [µM] | TGI [6] [µM] | GI50 [7] [µM] | TGI [7] [µM] | GI50 [8] [µM] | TGI [8] [µM] | GI50 [9] [µM] | TGI [9] [µM] | GI50 [10] [µM] | TGI [10] [µM] |
| --- | --- | --- | --- | --- | --- | --- | --- | --- | --- | --- | --- | --- | --- | --- | --- | --- | --- | --- | --- | --- |
| OCC1OC(n2cnc3c(NCc4ccccc4O)ncnc32)C(O)C1O (stereo not given) | 0.634 | > 100 | 1.21 | 6.09 | 1.27 | 24.2 | 2.99 | > 75.5 | 5.11 | > 63.6 | 8.57 | 46.3 | 0.184 | 3.2 | 0.616 | > 100 | 0.345 | 4.87 | 26.5 | > 100 |
| OCC1OC(n2cnc3c(NCc4ccco4)ncnc32)C(O)C1O (stereo not given) | 4.47 | > 100 | 1.59 | 5.5 | 3.34 | 29.7 | 5.91 | 48.1 | 3 | 21.3 | 2.79 | 32.8 | 2.08 | 15.1 | 4.28 | > 100 | 2.43 | 11.3 | 2.6 | 36.9 |
| Nc1nc(N)c(-c2ccc(Cl)c(Cl)c2)c(CP(Cl)(Cl)(Cl)Br)n1 | 2.79 | > 100 | 22.9 | > 100 | 6.4 | 32.2 | 18.4 | 72.1 | 17.3 | > 100 | 1.58 | > 100 | 4.4 | 84.3 | 7.05 | > 100 | 34.1 | > 100 | 5.37 | > 100 |
| COc1ccc(C(Nc2ccccn2)c2cc(C(C)(C)C)cc(C(C)(C)C)c2O)cc1 (stereo not given) | – | > 100 | – | > 100 | – | 67.1 | – | 24.4 | – | > 100 | – | 55.7 | – | 62.4 | – | > 100 | – | 76.4 | – | > 100 |
| C/C=C(\C)C(=O)O[C@@H]1C=CC(=O)O[C@H]1CNC(=O)[C@H](C)O | 16.9 | 64.2 | 21.2 | 53 | 16.9 | 37.7 | 15 | 32.8 | 9.12 | 33.3 | 22.2 | 67.9 | 22.6 | 82.1 | 17 | 51.3 | 21.9 | > 66.8 | 30.5 | > 88.4 |
| COc1ccc2nc3ccccc3c(NCc3ccccc3)c2c1 | 2.43 | 11.5 | 1.7 | 3.15 | 2.29 | 6.05 | 1.75 | 3.22 | 1.93 | 4.49 | 2.19 | 4.86 | 1.91 | 3.93 | 2.94 | 9.71 | 2.69 | 8.89 | 1.87 | 4.19 |
| Cc1cn(C2CC(O)C(COC(N)=O)O2)c(=O)[nH]c1=O (stereo not given) | – | > 100 | – | > 100 | – | > 100 | – | > 100 | – | > 100 | – | > 100 | – | > 100 | – | > 100 | – | > 100 | – | > 100 |
| C=C1C(=O)O[C@H]2[C@H]1CC/C(COC(=O)N[C@H](Cc1c[nH]c3ccccc13)C(=O)OC)=C\CC[C@@]1(C)O[C@@H]21 | 1.72 | 8.29 | 10.9 | 22.9 | 1.88 | 4.4 | 1.95 | 4.24 | 2.02 | 5.83 | 5.79 | 21.2 | 2.52 | 10 | 5.17 | 19.8 | 1.94 | 5.06 | 14.9 | 32.7 |
| Cn1cc(-c2nc(-c3cn(C)c4ncccc34)cs2)c2ccccc21 | 0.412 | > 100 | 1.5 | 13.5 | 1.35 | > 100 | 0.468 | 5.64 | 3.72 | > 100 | 0.858 | 15.9 | 0.292 | 1.15 | 4.83 | 37.3 | 2.98 | 17 | 1.43 | > 100 |
| CCS(=O)(=O)N1CCN(c2ccc(Nc3ncc(C(N)=O)c(NC4CC4)n3)cc2)CC1 | 4.94 | > 100 | 4.32 | 8.97 | 15.7 | 44 | 20 | 85.2 | 2.16 | 9.82 | 15.3 | 59.9 | 5.6 | > 100 | 13.9 | 52.9 | 2.88 | 13.9 | 19 | > 100 |
| CCC(C(=O)[C@@H](C)[C@@H](O)[C@H](C)[C@@H]1O[C@@H]([C@@H](CC)C(=O)ONC(=O)c2ccccc2)CC[C@@H]1C)[C@H]1O[C@]2(C=CC(=O)[C@]3(CC[C@@](C)([C@H]4CC[C@](O)(CC)[C@H](C)O4)O3)O2)[C@H](C)C[C@@H]1C (stereo not given in full) | 0.171 | 1.79 | 0.0851 | 0.731 | 1.25 | 2.93 | 0.168 | 1.06 | 0.0838 | 2.3 | 0.331 | 2.09 | 1.11 | 2.88 | 0.977 | 3.11 | 0.0463 | 2.98 | 0.168 | 1.63 |
| CC(=O)c1ccc(Oc2c3ccccc3nc3occc23)cc1 | 2.93 | > 100 | 28.1 | 80.6 | 2.11 | 7.95 | 4.14 | > 100 | 4.63 | > 100 | 23.3 | > 100 | 2.02 | 5.41 | 7.02 | > 100 | 8.21 | > 100 | 61.9 | > 100 |
